# Data: patent publication US9115134B2, “6-triazolopyridazine sulfanyl benzothiazole derivatives as MET inhibitors” (SANOFI, priority 2007, dated 2015)
# Assays:
# [1] = tested on: HCT116 cells, MKN45 cells; experiment: Test C: Measurement of cell proliferation by 14C-thymidine pulse; format: cell-based; conditions: 14C-thymidine incorporation, 96 h of treatment; cell line not given
# Protocol: (§1) Stop the reaction with 100 μl of stop solution. Read without delay at […], 0.1 second on Wallac Victor plate reader. • C) Test C: Measurement of cell proliferation by ^14c-thymidine pulse
# The cells are seeded into Cytostar 96-well plates in 180 μl for 4 hours at 37° C. and 5% CO2: HCT116 cells at a rate of 2500 cells per well in DMEM medium+10% foetal calf serum+1% L-glutamine and MKN45 cells at a rate of 7500 cells per well in RPMI medium+10% foetal calf serum+1% L-glutamine. After these 4 hours of incubation, the products are added in 10 μl as a 20-fold concentrated solution according to the dilution method mentioned for the ELISA. The products are tested at 10 concentrations in duplicate from 10 000 nM to 0.3 nM with an increment of 3.
# After treatment for 72 h, add 10 μl of ^14C-thymidine at 10 μCi/ml to obtain 0.1 μCi per well. The ^14C-thymidine incorporation is measured on a Micro-Beta machine (Perkin-Elmer) after 24 hours of pulse and 96 h of treatment.
# All the steps of the assay are automated on BIOMEK 2000 or TECAN stations.
# MET [2] = target: T1, MET (Homo sapiens, UniProt P08581); experiment: Test B: Inhibition of the autophosphorylation of MET; ELISA technique (pppY1230,1234,1235) in MKN45 cells; format: cell-based; design: Seed MKN45 cells into 96-well plates (Cell coat BD polylysine) at 20 000 cells/well; endogenous in cells; host or cells: MKN45 cells; conditions: 1 h treatment, PhosphoMET ELISA
# Protocol: Leave to adhere for 24 hours in an incubator.
# The cells are treated the day after seeding with the products at 6 concentrations in duplicate for 1 h. At least 3 control wells are treated with the same final amount of DMSO.
# Product dilution: Stock at 10 mM in pure DMSO—range from 10 mM to 30 μM with an increment of 3 in pure DMSO—intermediate 1/50 dilutions in culture medium and then removal of 10 μl added directly to the cells (200 μl): final range of 10 000 to 30 nM.
# At the end of the incubation, carefully remove the supernatant and rinse with 200 μl of PBS. Next, place 100 μl of lysis buffer directly in the wells on ice and incubate at 4° C. for 30 minutes. Lysis buffer: 10 mM Tris HCl, pH7.4, 100 mM NaCl, 1 mM EDTA, 1 mM EGTA, 1% Triton X-100, 10% glycerol, 0.1% SDS, 0.5% deoxycholate, 20 mM NaF, 2 mM Na3VO4, 1 mM PMSF and cocktail of antiproteases.
# The 100 μl of lysates are transferred into a V-bottomed polypropylene plate and the ELISA is performed immediately, or the plate is frozen at −80° C. • b) PhosphoMET ELISA BioSource Kit KH00281
# Into each well of the kit plate, add 70 μl of kit dilution buffer+30 μL of cell lysate or 30 μl of lysis buffer for the blanks. Incubate for 2 h with gentle agitation at ambient temperature.
# Rinse the wells 4 times with 400 μl of kit washing buffer. Incubate with 100 μl of anti-phospho MET antibody for 1 hour at ambient temperature.
# Rinse the wells 4 times with 400 μl of kit washing buffer. Incubate with 100 μl of anti-rabbit HRP antibody for 30 minutes at ambient temperature (except for the wells of chromogen alone).
# Rinse the wells 4 times with 400 μl of kit washing buffer. Introduce 100 μL of chromogen and incubate for 30 minutes in the dark at ambient temperature.
# as §1
# Target sequence in this assay (P08581 25-1390): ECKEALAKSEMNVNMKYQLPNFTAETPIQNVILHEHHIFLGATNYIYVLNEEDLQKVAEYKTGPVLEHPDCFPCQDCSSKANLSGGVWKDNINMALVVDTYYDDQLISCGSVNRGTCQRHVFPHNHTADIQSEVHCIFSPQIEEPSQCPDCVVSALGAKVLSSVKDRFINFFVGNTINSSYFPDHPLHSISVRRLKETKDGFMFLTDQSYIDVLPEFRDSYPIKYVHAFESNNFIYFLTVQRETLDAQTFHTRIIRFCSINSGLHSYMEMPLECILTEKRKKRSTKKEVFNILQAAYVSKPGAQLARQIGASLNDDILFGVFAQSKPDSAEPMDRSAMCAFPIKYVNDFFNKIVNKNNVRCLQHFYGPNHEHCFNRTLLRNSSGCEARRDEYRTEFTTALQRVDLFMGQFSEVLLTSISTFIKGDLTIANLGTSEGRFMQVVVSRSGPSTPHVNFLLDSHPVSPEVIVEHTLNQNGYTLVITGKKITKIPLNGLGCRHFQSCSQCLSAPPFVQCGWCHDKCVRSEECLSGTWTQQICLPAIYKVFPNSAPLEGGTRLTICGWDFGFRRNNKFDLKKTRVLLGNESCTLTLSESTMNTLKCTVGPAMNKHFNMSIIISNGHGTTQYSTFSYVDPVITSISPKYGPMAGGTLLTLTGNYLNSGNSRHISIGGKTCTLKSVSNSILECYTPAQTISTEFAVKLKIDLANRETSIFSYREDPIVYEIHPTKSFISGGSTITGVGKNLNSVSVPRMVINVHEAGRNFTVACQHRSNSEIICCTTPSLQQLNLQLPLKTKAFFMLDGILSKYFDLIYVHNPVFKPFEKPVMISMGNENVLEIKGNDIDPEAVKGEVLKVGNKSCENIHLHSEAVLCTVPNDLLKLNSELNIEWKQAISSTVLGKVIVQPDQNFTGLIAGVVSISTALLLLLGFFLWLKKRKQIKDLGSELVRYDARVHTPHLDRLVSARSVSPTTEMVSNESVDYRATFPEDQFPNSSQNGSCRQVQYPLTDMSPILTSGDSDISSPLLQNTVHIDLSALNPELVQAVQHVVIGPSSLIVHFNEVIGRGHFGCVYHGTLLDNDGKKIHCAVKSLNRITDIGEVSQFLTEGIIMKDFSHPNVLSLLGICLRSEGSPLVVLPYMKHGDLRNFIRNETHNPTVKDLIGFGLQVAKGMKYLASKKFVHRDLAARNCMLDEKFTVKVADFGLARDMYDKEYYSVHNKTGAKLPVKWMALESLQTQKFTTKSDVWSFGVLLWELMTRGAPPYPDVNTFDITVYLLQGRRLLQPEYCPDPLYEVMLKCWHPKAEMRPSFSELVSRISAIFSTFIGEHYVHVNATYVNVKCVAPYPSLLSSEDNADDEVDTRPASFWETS
# MET [3] = target: T1, MET; experiment: Test A: HTRF MET assay in 96-well format; format: biochemical; design: The His-Tev-MET (956-1390) recombinant DNA in pFastBac (Invitrogen) is transfected into insect cells; His tag (N, cleaved yes); TEV cleavage site (N); made in house; host or cells: SF21 insect cells (baculovirus, pFastBac); conditions: MET 5 nM, 10 μM ATP
# Protocol: I) Expression and Purification of MET, Cytoplasmic Domain
# The His-Tev-MET (956-1390) recombinant DNA in pFastBac (Invitrogen) is transfected into insect cells, and after several viral amplification steps, the final baculovirus stock is tested for the expression of the protein of interest.
# After infection for 72 h at 27° C. with the recombinant virus, the SF21 cell cultures are harvested by centrifugation and the cell pellets are stored at −80° C.
# The cell pellets are resuspended in lysis buffer (buffer A [50 mM HEPES, pH 7.5, 250 mM NaCl, 10% glycerol, 1 mM TECP]; +cocktail of protease inhibitors, Roche Diagnostics, without EDTA, ref 1873580), stirred at 4° C. until the mixture is homogeneous and then lyzed mechanically using a “Dounce” type apparatus.
# After centrifugation, the lysis supernatant is incubated for 2 h at 4° C. with nickel chelate resin (His-Trap 6 Fast Flow™, GE HealthCare). After washing with 20 volumes of buffer A, the suspension is packed into a column, and the proteins are eluted with a gradient of buffer B ([…]+290 mM imidazole).
# The fractions containing the protein of interest for the purpose of electrophoretic analysis (SDS PAGE) are combined, concentrated by ultrafiltration (10 kDa cut-off) and injected onto an exclusion chromatography column (Superdex™ 200, GE HealthCare) equilibrated in buffer A.
# After enzymatic cleavage of the histidine tag, the protein is reinjected onto a new IMAC nickel chelate chromatography column (His-Trap 6 Fast Flow™, GE HealthCare) equilibrated in buffer A. The fractions eluted with a gradient of buffer B and containing the protein of interest after electrophoresis (SDS PAGE) are finally combined and conserved at −80° C.
# For the production of autophosphorylated protein, the previous fractions are incubated for 1 h at ambient temperature after the addition of 2 mM ATP, 2 mM MgCl2, and 4 mM Na3VO4. After the reaction has been stopped with 5 mM of EDTA, the reaction mixture is injected onto a HiPrep desalifying column (GE HealthCare) preequilibrated in buffer A+4 mM Na3VO4, and the fractions containing the protein of interest (SDS PAGE analysis) are combined and stored at −80° C. The degree of phosphorylation is verified by mass spectrometry (LC-MS) and by peptide mapping.
# • A) Test A: HTRF MET assay in 96-well format
# MET at a final concentration of 5 nM is incubated in a final volume of 50 μl of enzymatic reaction in the presence of the test molecule (for a final concentration range of from 0.17 nM to 10 μM, 3% DMSO final concentration) in 10 mM MOPS buffer, pH 7.4, 1 mM DTT, 0.01% Tween 20. The reaction is initiated with the substrate solution to obtain final concentrations of 1 μg/ml poly-(GAT), 10 μM ATP and 5 mM MgCl2. After incubation for 10 min at ambient temperature, the reaction is stopped with a 30 μl mix so as to obtain a final solution of 50 mM Hepes pH 7.5, 500 mM potassium fluoride, 0.1% BSA and 133 mM EDTA in the presence of 80 ng of streptavidin 61SAXLB Cis-Bio Int. and 18 ng of anti-phosphotyrosine Mab PT66-Europium Cryptate per well. After incubation for 2 hours at ambient temperature, the reading is taken at 2 wavelengths, 620 nm and 665 nm, on a reader for the TRACE/HTRF technique and the % inhibition is calculated from the 665/620 ratios.
# Target sequence in this assay (P08581 956-1390): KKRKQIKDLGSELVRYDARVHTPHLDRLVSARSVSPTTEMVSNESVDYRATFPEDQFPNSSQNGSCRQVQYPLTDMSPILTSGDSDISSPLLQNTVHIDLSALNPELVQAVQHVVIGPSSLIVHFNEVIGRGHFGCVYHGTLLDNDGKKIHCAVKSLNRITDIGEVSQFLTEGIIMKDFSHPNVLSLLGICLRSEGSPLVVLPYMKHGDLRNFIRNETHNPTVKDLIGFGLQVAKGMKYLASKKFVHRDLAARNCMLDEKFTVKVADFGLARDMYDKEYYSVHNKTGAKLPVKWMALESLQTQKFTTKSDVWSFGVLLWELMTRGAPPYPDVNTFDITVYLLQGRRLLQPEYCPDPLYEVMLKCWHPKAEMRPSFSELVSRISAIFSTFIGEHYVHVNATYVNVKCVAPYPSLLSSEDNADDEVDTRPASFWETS
Structure (SMILES),IC50 [1] [nM],IC50 (MET [2]) [nM],IC50 (MET [3]) [nM]
"CC(=O)Nc1nc2ccc(Sc3nnc4ccc(N5CCN(C)CC5)nn34)cc2s1 [Example 25, N-(6-{[6-(4-Methylpiperazin-1-yl)[1,2,4]triazolo[4,3-b]pyridazin-3-yl]sulphanyl}-1,3-benzothiazol-2-yl)acetamide]",< 1000,100 to 500,< 100
"COCCNc1nc2ccc(Sc3nnc4ccc(-c5ccc(F)cc5)nn34)cc2s1 [Example 26, 6-{[6-(4-Fluorophenyl)[1,2,4]triazolo[4,3-b]pyridazin-3-yl]sulphanyl}-N-(2-methoxyethyl)-1,3-benzothiazol-2-amine]",< 1000,< 100,< 100
"COCCNc1ccc2nnc(Sc3ccc4nc(NC(C)=O)sc4c3)n2n1 [Example 27, N-[6-({6-[(2-Methoxyethyl)amino][1,2,4]triazolo[4,3-b]pyridazin-3-yl}sulphanyl)-1,3-benzothiazol-2-yl]acetamide]",< 1000,< 100,< 100
"O=C(NCCN1CCOCC1)Nc1nc2ccc(Sc3nnc4ccc(N5CCOCC5)nn34)cc2s1 [Example 28, 1-[2-(Morpholin-4-yl)ethyl]-3-(6-{[6-(morpholin-4-yl)[1,2,4]triazolo[4,3-b]-pyridazin-3-yl]sulphanyl}-1,3-benzothiazol-2-yl)urea]",< 1000,< 100,< 100
"Nc1ccc2nnc(Sc3ccc4nc(NC(=O)NCCN5CCOCC5)sc4c3)n2n1 [Example 29, 1-{6-[(6-Amino[1,2,4]triazolo[4,3-b]pyridazin-3-yl)sulphanyl]-1,3-benzothiazol-2-yl}-3-[2-(morpholin-4-yl)ethyl]urea]",< 1000,100 to 500,< 100
"Fc1ccc(-c2ccc3nnc(Sc4ccc5nc(NCCN6CCOCC6)sc5c4)n3n2)cc1 [Example 30, 6-{[6-(4-Fluorophenyl)[1,2,4]triazolo[4,3-b]pyridazin-3-yl]sulphanyl}-N-[2-(morpholin-4-yl)ethyl]-1,3-benzothiazol-2-amine]",< 1000,< 100,< 100
"CC(=O)Nc1ccc2nnc(Sc3ccc4nc(NC(=O)NCCN5CCOCC5)sc4c3)n2n1 [Example 31, N-(3-{[2-({[2-(Morpholin-4-yl)ethyl]carbamoyl}amino)-1,3-benzothiazol-6-yl]sulphanyl}[1,2,4]triazolo[4,3-b]pyridazin-6-yl)acetamide]",< 1000,100 to 500,< 100
"CC(C)(C)C(=O)Nc1ccc2nnc(Sc3ccc4nc(NC(=O)NCCN5CCOCC5)sc4c3)n2n1 [Example 32, 2,2-Dimethyl-N-(3-{[2-({[2-(morpholin-4-yl)ethyl]carbamoyl}amino)-1,3-benzothiazol-6-yl]sulphanyl}[1,2,4]triazolo[4,3-b]pyridazin-6-yl)propanamide]",< 1000,< 100,< 100
"O=C(Nc1nc2ccc(Sc3nnc4ccc(-c5ccc(F)cc5)nn34)cc2s1)Oc1ccccc1 [Example 33, Phenyl (6-{[6-(4-fluorophenyl)[1,2,4]triazolo[4,3-b]pyridazin-3-yl]sulphanyl}-1,3-benzothiazol-2-yl)carbamate]",< 1000,< 100,< 500
"O=C(NCCN1CCOCC1)Nc1nc2ccc(Sc3nnc4ccc(OCC5CCO5)nn34)cc2s1 (stereo not drawn) [Example 34, 1-[2-(Morpholin-4-yl)ethyl]-3-(6-{[6-(oxetan-2-ylmethoxy)[1,2,4]triazolo[4,3-b]pyridazin-3-yl]sulphanyl}-1,3-benzothiazol-2-yl)urea]",< 10000,< 100,< 100
"O=C(Nc1nc2ccc(Sc3nnc4ccc(-c5ccc(F)cc5)nn34)cc2s1)OCC1CCO1 (stereo not drawn) [Example 35, Oxetan-2-ylmethyl (6-{[6-(4-fluorophenyl)[1,2,4]triazolo[4,3-b]pyridazin-3-yl]sulphanyl}-1,3-benzothiazol-2-yl)carbamate]",< 1000,< 100,< 100
"COc1ccc2nnc(Sc3ccc4nc(NC(=O)C5CC5)sc4c3)n2n1 [Example 36, N-{6-[(6-Methoxy[1,2,4]triazolo[4,3-b]pyridazin-3-yl)sulphanyl]-1,3-benzothiazol-2-yl}cyclopropanecarboxamide]",< 1000,< 100,< 100
"CCOc1ccc2nnc(Sc3ccc4nc(NC(=O)NCCN5CCOCC5)sc4c3)n2n1 [Example 37, 1-{6-[(6-Ethoxy[1,2,4]triazolo[4,3-b]pyridazin-3-yl)sulphanyl]-1,3-benzothiazol-2-yl}-3-[2-(morpholin-4-yl)ethyl]urea]",< 1000,< 100,< 100
"CCOC1=Nn2c(nnc2Sc2ccc3nc(NC(=O)NCCN4CCOCC4)sc3c2)CC1 [Example 38, 1-{6-[(6-Ethoxy-7,8-dihydro[1,2,4]triazolo[4,3-b]pyridazin-3-yl)sulphanyl]-1,3-benzothiazol-2-yl}-3-[2-(morpholin-4-yl)ethyl]urea]",< 1000,< 100,< 100
